Each structure is given as a SMILES string.

The subject of series [1] is superoxide radicals (O2^-) release from the peritoneal macrophage cells of guinea pig. Put plainly: Inhibitory effect against superoxide radicals (O2^-) release from peritoneal macrophage cells by FMLP stimulation, cytochrome C reduction (Pharmacological Test-2). It counts as cell-based. The settings on record: Cavia porcellus, Peritoneal macrophage cell; FMLP 10^-7 M; 2×10^6 cells/ml; OD550; read-out: 50% inhibitory concentration (IC50). On the procedure:
Inhibitory effect of the pyrazinoxide compound of NF-1616-904 against superoxide radicals (O2^-) release from the peritoneal macrophage cells of guinea pig by stimulation:
Mineral oil was intraperitoneally administered to a guinea pig, then 96 hours after the administration, the peritoneal microphage cells were obtained.
Superoxide radicals (O2^-) were determined by means of reduction of cytochrome C according to the procedures described in an article by T. Matsumoto, et al. in Biochemical and Biophysical Research Communications, Vol. 88, No. 3 (1979), pages 974-979.
Thus, the peritoneal macrophage cells were added to make the final concentration of 2×10^6 cells/ml into 1 ml of 80 μM-cytochrome C solution, further the pyrazinoxide compound of NF-1616-904 was added thereto to make the test group sample. On the other hand, water added in place of the pyrazinoxide compound of NF-1616-904 to make the control group sample. Both test group and control group samples were subjected to a pure incubation at 37° C. for 1 minute.
As to the stimulating agent for releasing superoxide radicals (O2^-), formylmethionylleucylphenylalanine (FMLP) was added to make the final concentration of 10^-7 M into the above-mentioned test group sample and control group sample. Then, both samples were subjected to additional reaction for 1 minute. […]

The subject of the next series is Masugi nephritis. Put plainly: Anti-albuminuria activity in Masugi nephritis (Pharmacological Test-3). It counts as in vivo, rat. The settings on record: oral; for Ratio of inhibition of albuminuria: 24 hours after NT, versus control; for Albuminuria: urine 24 hours after NT, mean±S.E., six rats, control 120 ± 30. Here is the method:
Anti-albuminuria activity of the pyrazinoxide compound of NF-1616-904 in Masugi nephritis
Rat nephrotoxin (hereinafter referred to as "NT") was prepared as follows. Thus, the kidney cortex of a rat was homogenized with an equal amount of physiological saline, then the thus obtained homogenate was admixed with Freund's complete adjuvant (manufacture by Difco Laboratories, Inc., Detroit, Mich., U.S.A.) in the ratio of 1:1. Then, 2 ml of this mixture was administered subcutaneously to a rabbit (body weight: 3.1 kg) to have said rabbit immunized. 1.5 Months after the immunization, the blood was sampled from the heart of said rabbit, and the serum was obtained thereform. The serum thus obtained was inactivated at 56° C. for 30 minutes, and subjected to fractionation by salting out with a aqueous solution saturated with 40% of ammonium sulfate. By sampling of immunoglobulin-γ-globulin (IgG) fraction, the desired NT was obtained.
This test was conducted by using Wisterstrain male rats having 150-160 g body weight. Pyrazinoxide compound of NF-1616-904 of the present invention […] were orally administered forcedly. Additionally, 1 ml of NT was administered intravenously to the tail vein of said rat. On the other hand, in place of pyrazinoxide compound of NF-1616-904, physiological saline was administered to other rats to make the control group.
The total amount of urinary protein being excreted in the urine during 24 hours after the administration of NT was determined by turbidity method using sulfosalicylic acid and bovine serum albumin (BSA) as the reference substance, according to procedures described in an article by F. Kingsbury, et al. in J. Lab. Clin. Med., Vol. 11, (1926), pages 981-989.
The ratio of inhibition of albuminuria (%) in the test group was calculated by referring to the measured value in the control group. The test results are shown in the following Table 2, in which each of the test data are shown at the mean value±S. E. of the six rats used in each of test and control groups.

The subject of the next series is P388/VCR cells. Put plainly: Effect for decreasing the tolerance against Vincristine in P388/VCR cells (Pharmacological Test-1). As to conditions: Control group, NF-1616-902 0; 48 hours. It counts as cell-based. The text has this:
Effect for decreasing the tolerance against Vincristine in P388/VCR cells

For the compound `COc1c(Cc2c[nH]c3ccccc23)[nH]c(=O)c(CC(C)C)[n+]1[O-]` [NF-1616-904], the IC50 in series [1] was 12 µM. For the same compound, in the series on Masugi nephritis (30 mg/kg), the “Ratio of inhibition of albuminuria” value was 62.5% and the Albuminuria was 45 ± 16 mg/day. Moreover, in the series with Masugi nephritis (60 mg/kg), the “Ratio of inhibition of albuminuria” value was 26.7% and the Albuminuria came out at 88 ± 18 mg/day.

Turning to `CC[C@]1(O)C[C@H]2CN(CCc3c([nH]c4ccccc34)[C@@](C(=O)OC)(c3cc4c(cc3OC)N(C=O)[C@H]3[C@@](O)(C(=O)OC)[C@H](OC(C)=O)[C@]5(CC)C=CCN6CC[C@]43[C@@H]65)C2)C1` [Vincristine], the “Cytotoxic concentration of Vincristine” value in the series with P388/VCR cells was determined as 100 ng/mL.

For the origin of these results see patent publication US5021419A, “Novel pyrazinoxide compound of NF-1616-904 and a pharmaceutical composition containing the same” (Otsuka Pharmaceutical Co., Ltd., priority 1987, dated 1991).
